The text below walks through data of ChEMBL document CHEMBL4373740, “Synthesis and biological evaluation of new MET inhibitors with 1,6-naphthyridinone scaffold” (Eur J Med Chem, 2020).

Data set [1] concerns the target Hepatocyte growth factor receptor (Homo sapiens, UniProt P08581). In words: Inhibition of purified recombinant MET kinase domain (unknown origin) using biotin as substrate preincubated for 5 mins followed by substrate addition and measured after 30 to 60 mins in presence of ATP by HTRF assay.
For another data set, the system named is MKN-45. In words: Antiproliferative activity against human MKN45 cells at 10 uM incubated for 72 hrs by MTT assay relative to control. The data set is classed as functional. To be noted: MKN-45, 72 h.
The nature of data set [2]: AUC (0 to infinity) in Sprague-Dawley rat at 1.0 mg/kg, iv measured for 5 min to 72 hrs by LC-MS/MS analysis. More on the design: dose 1 mg/kg, time infinity, route intravenous. The conditions noted are these: in vivo. Format: ADME, organism-based.
Data set [3] is described as follows: Mean residence time in Sprague-Dawley rat at 1.0 mg/kg, iv measured for 5 min to 72 hrs by LC-MS/MS analysis. The data set is classed as ADME, organism-based. To be noted: in vivo.
The target of data set [4] is Tyrosine-protein kinase receptor UFO (Homo sapiens) (UniProt P30530). In words: Inhibition of recombinant […] human N-terminal GST-tagged AXL (473 to end residues) expressed in baculovirus infected Sf21 insect cells at 1 uM using biotin as substrate preincubated for 5 mins followed by substrate addition and measured after 30 to 60 mins in presence of ATP by HTRF assay relative to control.

Data set [5] addresses Tyrosine-protein kinase Fgr (Homo sapiens) (UniProt P09769). The data set is described as follows: Inhibition of recombinant full length human His-tagged FGR expressed in baculovirus expression system at 1 uM using biotin as substrate preincubated for 5 mins followed by substrate addition and measured after 30 to 60 mins in presence of ATP by HTRF assay relative to control.

Data set [6] deals with High affinity nerve growth factor receptor (Homo sapiens, UniProt P04629). In words: Inhibition of recombinant human His-tagged TRKA catalytic domain (441 to 796 residues) expressed in baculovirus expression system at 1 uM using biotin as substrate preincubated for 5 mins followed by substrate addition and measured after 30 to 60 mins in presence of ATP by HTRF assay relative to control.

In data set [7] the target is Tyrosine-protein kinase receptor TYRO3 (Homo sapiens) (UniProt Q06418). The data set is described as follows: Inhibition of recombinant human GST-tagged RSE catalytic domain (451 to 890 residues) expressed in baculovirus expression system at 1 uM using biotin as substrate preincubated for 5 mins followed by substrate addition and measured after 30 to 60 mins in presence of ATP by HTRF assay relative to control.
Tyrosine-protein kinase receptor TYRO3 (Homo sapiens), sequence (Q06418 whole entry, the tested form may be a part): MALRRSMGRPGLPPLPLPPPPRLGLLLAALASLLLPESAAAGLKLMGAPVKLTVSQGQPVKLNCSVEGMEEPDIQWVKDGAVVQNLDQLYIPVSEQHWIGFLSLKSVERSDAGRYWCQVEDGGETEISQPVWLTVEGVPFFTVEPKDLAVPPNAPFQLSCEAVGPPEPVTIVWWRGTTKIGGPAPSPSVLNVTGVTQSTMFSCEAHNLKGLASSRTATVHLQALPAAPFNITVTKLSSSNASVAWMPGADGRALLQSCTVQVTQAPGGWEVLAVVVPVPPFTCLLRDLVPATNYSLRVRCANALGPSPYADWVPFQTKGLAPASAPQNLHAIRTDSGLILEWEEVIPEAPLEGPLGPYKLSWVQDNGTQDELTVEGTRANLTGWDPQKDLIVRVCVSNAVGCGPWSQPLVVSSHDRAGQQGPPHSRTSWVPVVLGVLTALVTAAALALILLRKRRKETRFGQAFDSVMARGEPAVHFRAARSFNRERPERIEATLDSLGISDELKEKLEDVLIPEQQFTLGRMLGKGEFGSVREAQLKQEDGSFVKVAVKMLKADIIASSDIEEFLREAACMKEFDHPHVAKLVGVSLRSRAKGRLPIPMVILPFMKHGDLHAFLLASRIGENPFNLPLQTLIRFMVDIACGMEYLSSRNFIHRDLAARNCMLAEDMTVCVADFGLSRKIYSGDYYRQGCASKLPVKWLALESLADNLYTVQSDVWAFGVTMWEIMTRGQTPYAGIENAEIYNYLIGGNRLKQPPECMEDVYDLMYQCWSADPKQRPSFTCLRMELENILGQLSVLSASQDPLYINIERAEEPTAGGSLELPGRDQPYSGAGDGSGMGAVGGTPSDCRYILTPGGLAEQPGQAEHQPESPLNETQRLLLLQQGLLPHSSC

Data set [8] addresses Tyrosine-protein kinase ABL1 (Homo sapiens) (UniProt P00519). The data set is described as follows: Inhibition of recombinant full length human His-tagged ABL1 expressed in baculovirus expression system at 1 uM using biotin as substrate preincubated for 5 mins followed by substrate addition and measured after 30 to 60 mins in presence of ATP by HTRF assay relative to control.

For data set [9], the target named is Aurora kinase A (Homo sapiens) (UniProt O14965). The data set is described as follows: Inhibition of recombinant full length human His-tagged Aurora A expressed in baculovirus expression system at 1 uM using biotin as substrate preincubated for 5 mins followed by substrate addition and measured after 30 to 60 mins in presence of ATP by HTRF assay relative to control.

The target of data set [10] is CDK2/Cyclin A2 (Homo sapiens) (UniProt P24941+P20248). The data set is described as follows: Inhibition of recombinant full length human His-tagged CDK2/Cyclin A expressed in baculovirus expression system at 1 uM using biotin as substrate preincubated for 5 mins followed by substrate addition and measured after 30 to 60 mins in presence of ATP by HTRF assay relative to control.

Data set [11] concerns the target Cyclin-dependent kinase 5/CDK5 activator 1 (Homo sapiens) (UniProt Q00535+Q15078). The data set is described as follows: Inhibition of recombinant full length human GST/His-tagged CDK5/p25 expressed in baculovirus expression system at 1 uM using biotin as substrate preincubated for 5 mins followed by substrate addition and measured after 30 to 60 mins in presence of ATP by HTRF assay relative to control.

Data set [12] deals with Glycogen synthase kinase-3 beta (Homo sapiens) (UniProt P49841). The data set is described as follows: Inhibition of GSK3beta (unknown origin) at 1 uM using biotin as substrate preincubated for 5 mins followed by substrate addition and measured after 30 to 60 mins in presence of ATP by HTRF assay relative to control.
Glycogen synthase kinase-3 beta (Homo sapiens), sequence (P49841 whole entry, looked up): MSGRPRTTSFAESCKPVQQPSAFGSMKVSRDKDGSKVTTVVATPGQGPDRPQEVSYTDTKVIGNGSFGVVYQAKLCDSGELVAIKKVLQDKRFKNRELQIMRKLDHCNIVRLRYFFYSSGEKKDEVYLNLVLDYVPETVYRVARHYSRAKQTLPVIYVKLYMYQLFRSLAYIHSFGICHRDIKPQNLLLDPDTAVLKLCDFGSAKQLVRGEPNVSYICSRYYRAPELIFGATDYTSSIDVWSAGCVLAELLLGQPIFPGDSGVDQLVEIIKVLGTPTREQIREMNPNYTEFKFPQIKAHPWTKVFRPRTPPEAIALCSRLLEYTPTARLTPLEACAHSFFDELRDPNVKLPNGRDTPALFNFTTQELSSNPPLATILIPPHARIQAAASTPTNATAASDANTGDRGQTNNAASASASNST
Data set [13] addresses Inhibitor of nuclear factor kappa-B kinase subunit beta (Homo sapiens) (UniProt O14920). In words: Inhibition of recombinant full length human GST-tagged IKBKB expressed in baculovirus expression system at 1 uM using biotin as substrate preincubated for 5 mins followed by substrate addition and measured after 30 to 60 mins in presence of ATP by HTRF assay relative to control.

The target of data set [14] is Tyrosine-protein kinase JAK2 (Homo sapiens) (UniProt O60674). In words: Inhibition of recombinant full length human GST-tagged JAK2 expressed in baculovirus expression system at 1 uM using biotin as substrate preincubated for 5 mins followed by substrate addition and measured after 30 to 60 mins in presence of ATP by HTRF assay relative to control.
The target of data set [15] is Tyrosine-protein kinase JAK3 (Homo sapiens) (UniProt P52333). The data set is described as follows: Inhibition of recombinant full length human GST-tagged JAK3 expressed in baculovirus expression system at 1 uM using biotin as substrate preincubated for 5 mins followed by substrate addition and measured after 30 to 60 mins in presence of ATP by HTRF assay relative to control.
Tyrosine-protein kinase JAK3 (Homo sapiens), sequence (P52333 whole entry): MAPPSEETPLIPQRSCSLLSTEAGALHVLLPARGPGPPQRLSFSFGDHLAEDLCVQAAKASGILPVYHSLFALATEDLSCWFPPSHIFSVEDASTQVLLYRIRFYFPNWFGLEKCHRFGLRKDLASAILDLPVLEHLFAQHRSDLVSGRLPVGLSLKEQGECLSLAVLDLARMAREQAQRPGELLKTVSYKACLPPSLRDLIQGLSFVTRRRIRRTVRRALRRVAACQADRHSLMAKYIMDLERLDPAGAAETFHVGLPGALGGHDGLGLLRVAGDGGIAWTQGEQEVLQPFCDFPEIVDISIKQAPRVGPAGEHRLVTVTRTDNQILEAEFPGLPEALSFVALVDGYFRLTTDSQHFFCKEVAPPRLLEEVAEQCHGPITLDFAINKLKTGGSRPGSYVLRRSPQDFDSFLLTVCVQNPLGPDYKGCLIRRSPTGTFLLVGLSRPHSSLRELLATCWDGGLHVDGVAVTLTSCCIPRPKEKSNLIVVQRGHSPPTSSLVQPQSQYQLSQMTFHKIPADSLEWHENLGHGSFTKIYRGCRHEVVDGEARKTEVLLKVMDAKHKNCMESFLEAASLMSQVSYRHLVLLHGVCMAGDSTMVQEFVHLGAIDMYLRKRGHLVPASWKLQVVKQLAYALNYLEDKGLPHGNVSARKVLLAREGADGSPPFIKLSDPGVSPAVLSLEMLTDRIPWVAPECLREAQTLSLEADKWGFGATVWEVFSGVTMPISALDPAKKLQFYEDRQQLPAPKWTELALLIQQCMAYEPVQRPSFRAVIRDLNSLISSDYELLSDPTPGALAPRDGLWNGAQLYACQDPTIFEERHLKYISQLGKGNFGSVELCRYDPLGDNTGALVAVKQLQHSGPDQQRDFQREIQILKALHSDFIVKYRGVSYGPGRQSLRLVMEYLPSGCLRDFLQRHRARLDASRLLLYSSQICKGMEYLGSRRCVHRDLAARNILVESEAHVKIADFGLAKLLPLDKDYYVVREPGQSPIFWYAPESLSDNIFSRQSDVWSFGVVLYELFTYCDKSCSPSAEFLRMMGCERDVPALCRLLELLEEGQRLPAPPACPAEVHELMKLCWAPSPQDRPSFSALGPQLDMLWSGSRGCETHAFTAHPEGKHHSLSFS

Data set [16] has as its target Tyrosine-protein kinase Lyn (Homo sapiens) (UniProt P07948). In words: Inhibition of recombinant full length human GST-tagged LYN B expressed in baculovirus expression system at 1 uM using biotin as substrate preincubated for 5 mins followed by substrate addition and measured after 30 to 60 mins in presence of ATP by HTRF assay relative to control.
Data set [17] addresses Mitogen-activated protein kinase 3 (Homo sapiens) (UniProt P27361). In words: Inhibition of recombinant full length human GST-tagged MAPK3 expressed in Escherichia coli at 1 uM using biotin as substrate preincubated for 5 mins followed by substrate addition and measured after 30 to 60 mins in presence of ATP by HTRF assay relative to control.
For data set [18], the target named is Serine/threonine-protein kinase PLK3 (Homo sapiens) (UniProt Q9H4B4). In words: Inhibition of recombinant full length human GST-tagged PLK3 expressed in baculovirus expression system at 1 uM using biotin as substrate preincubated for 5 mins followed by substrate addition and measured after 30 to 60 mins in presence of ATP by HTRF assay relative to control.
Serine/threonine-protein kinase PLK3 (Homo sapiens), sequence (Q9H4B4 whole entry, looked up): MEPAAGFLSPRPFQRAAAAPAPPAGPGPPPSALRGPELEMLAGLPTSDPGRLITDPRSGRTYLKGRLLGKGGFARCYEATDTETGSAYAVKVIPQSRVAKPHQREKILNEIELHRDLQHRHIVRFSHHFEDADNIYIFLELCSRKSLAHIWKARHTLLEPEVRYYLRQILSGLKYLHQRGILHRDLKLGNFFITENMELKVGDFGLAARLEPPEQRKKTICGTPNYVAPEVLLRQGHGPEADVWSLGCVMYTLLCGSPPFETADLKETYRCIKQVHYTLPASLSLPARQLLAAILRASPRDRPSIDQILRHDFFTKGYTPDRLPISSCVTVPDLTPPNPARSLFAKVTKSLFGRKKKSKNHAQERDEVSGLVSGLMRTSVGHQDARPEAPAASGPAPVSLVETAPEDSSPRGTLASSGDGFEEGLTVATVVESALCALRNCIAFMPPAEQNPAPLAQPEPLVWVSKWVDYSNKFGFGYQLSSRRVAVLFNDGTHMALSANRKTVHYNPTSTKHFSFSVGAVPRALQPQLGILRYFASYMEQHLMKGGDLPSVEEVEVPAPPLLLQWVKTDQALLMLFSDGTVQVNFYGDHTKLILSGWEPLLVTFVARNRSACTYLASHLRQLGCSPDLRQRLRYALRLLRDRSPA

Data set [19] deals with Serine/threonine-protein kinase TBK1 (Homo sapiens) (UniProt Q9UHD2). In words: Inhibition of recombinant full length human GST-tagged TBK1 expressed in insect cells at 1 uM using biotin as substrate preincubated for 5 mins followed by substrate addition and measured after 30 to 60 mins in presence of ATP by HTRF assay relative to control.
Data set [20] concerns the target Mitogen-activated protein kinase kinase kinase 20 (Homo sapiens) (UniProt Q9NYL2). In words: Inhibition of recombinant full length human GST-tagged ZAK expressed in baculovirus expression system at 1 uM using biotin as substrate preincubated for 5 mins followed by substrate addition and measured after 30 to 60 mins in presence of ATP by HTRF assay relative to control.

Cyclin-dependent kinase 5/CDK5 activator 1 (Homo sapiens), sequence (Q00535 whole entry): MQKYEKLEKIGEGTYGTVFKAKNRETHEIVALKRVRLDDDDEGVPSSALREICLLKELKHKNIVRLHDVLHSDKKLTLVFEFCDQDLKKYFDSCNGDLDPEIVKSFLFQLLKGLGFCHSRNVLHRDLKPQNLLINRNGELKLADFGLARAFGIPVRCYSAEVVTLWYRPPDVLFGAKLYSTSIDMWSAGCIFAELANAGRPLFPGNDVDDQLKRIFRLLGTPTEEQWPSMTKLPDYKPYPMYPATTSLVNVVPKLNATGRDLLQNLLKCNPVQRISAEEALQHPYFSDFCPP
Cyclin-dependent kinase 5/CDK5 activator 1 (Homo sapiens), sequence (Q15078 99-307 partner limits assumed): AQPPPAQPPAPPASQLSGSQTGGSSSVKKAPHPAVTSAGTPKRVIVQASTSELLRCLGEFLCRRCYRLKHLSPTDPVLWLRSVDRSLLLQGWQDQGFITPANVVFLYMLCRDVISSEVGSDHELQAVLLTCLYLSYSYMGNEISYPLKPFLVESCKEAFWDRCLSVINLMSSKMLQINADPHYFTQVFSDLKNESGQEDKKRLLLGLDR
Inhibitor of nuclear factor kappa-B kinase subunit beta (Homo sapiens), sequence (O14920 whole entry): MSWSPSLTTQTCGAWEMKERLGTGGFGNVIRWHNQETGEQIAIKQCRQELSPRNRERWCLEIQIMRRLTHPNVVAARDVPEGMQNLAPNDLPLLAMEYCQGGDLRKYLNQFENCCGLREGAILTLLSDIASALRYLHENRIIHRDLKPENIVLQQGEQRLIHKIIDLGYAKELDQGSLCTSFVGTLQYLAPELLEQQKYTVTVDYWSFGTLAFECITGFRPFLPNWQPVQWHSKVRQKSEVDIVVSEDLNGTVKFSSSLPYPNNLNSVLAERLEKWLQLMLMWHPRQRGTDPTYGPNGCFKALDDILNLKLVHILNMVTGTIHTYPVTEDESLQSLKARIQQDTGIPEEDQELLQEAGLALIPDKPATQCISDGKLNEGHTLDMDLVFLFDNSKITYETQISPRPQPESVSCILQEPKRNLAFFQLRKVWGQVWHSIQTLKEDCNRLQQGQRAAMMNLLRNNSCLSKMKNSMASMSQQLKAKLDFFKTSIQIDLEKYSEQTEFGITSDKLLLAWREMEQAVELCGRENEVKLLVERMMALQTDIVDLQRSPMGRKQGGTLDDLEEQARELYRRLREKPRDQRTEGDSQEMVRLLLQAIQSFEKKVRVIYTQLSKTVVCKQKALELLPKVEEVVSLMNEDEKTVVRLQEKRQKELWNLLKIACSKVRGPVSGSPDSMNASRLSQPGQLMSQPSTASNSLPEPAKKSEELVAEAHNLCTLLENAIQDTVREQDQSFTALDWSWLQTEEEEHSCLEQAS
Mitogen-activated protein kinase 3 (Homo sapiens), sequence (P27361 whole entry): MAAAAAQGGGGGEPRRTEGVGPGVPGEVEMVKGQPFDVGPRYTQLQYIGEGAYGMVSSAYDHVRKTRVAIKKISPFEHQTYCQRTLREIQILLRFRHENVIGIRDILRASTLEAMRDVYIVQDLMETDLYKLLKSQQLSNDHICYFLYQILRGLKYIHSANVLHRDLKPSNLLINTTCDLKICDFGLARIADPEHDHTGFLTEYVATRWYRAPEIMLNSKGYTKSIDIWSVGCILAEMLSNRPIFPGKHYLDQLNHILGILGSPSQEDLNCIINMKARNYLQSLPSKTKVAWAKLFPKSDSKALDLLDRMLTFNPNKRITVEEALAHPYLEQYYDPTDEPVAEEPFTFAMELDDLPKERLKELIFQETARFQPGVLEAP

As for `Cn1cc(-c2ccc(F)cc2)c(=O)c2c(Nc3ccc(Oc4ccnc(NC(=O)C5CC5)c4)c(F)c3)nccc21`, the IC50 in [1] turned out to be 7.1 nM. At 10 µM the inhibition with MKN-45 was 30.9%. For the same molecule, in [2], the AUC(0-inf) amounted to 80600 ng·h/mL. Also, the MRT in data set [3] amounted to 10.8 h. The inhibition in data set [4] was > 80%; in [5], > 80%; in [6], > 80%; in data set [7], > 80%; in data set [8] it was < 50%; in data set [9] it was < 50%. Besides, the inhibition in [10], in data set [11], in data set [12], in [13], in data set [14] and in [15] was < 50% in each case. Further, the inhibition in data set [16], in data set [17], in data set [18], in [19] and in data set [20] was < 50% throughout.
